What was measured:
[1] = tested on: transplanted tumor of human non-small cell lung cancer cell H1299; conditions: H1299; 30 mg/kg i.g. 30 days
Protocol: (§1) Then cell concentration was adjusted to 1×10^7/ml with matrigel, then each nude mouse was inoculated subcutaneously with 0.2 ml of cells at its right armpit and recorded as the first day of inoculation. When the tumor grows to be greater than or equal to 100 mm^3, the mice were randomly divided into 11 groups with 6 mice in each group: isovaleryl spiramycin I groups with doses of 25, 50 and 100 mg/kg, isovaleryl spiramycin II groups with doses of 25, 50 and 100 mg/kg, and isovaleryl spiramycin III groups with doses of 25, 50 and 100 mg/kg. Each group was continuously administered intragastrically for 30 days with a dose of 20 ml/kg. The mice were sacrificed the next day after drug withdrawal and the indicators were tested. The long diameter and short diameter of the tumor, and the body weight of each mouse were recorded every 3 days from drug administration to nude mouse sacrifice.
(§2) The body weight of the nude mice and the long diameter (a) and short diameter (b) of the transplanted tumor were measured every 3 days, and the tumor volume (v), relative tumor volume (RTV) and relative tumor proliferation rate (T/C) are calculated respectively according to the following formulas, wherein V=a×b^2/2; RTV=V/V0 (V0 is the tumor volume before administration, V is the tumor volume before sacrifice), and T/C (%)=treatment group RTV/model control group RTV×100%.
(§3) Each mouse was weighed and sacrificed. After the tumor was completely stripped off from the body of the mouse, the non-tumor tissues such as blood stains and fat were removed to weigh the tumor and calculate the tumor growth inhibition rate. The average tumor weight of each group of mice is used as an indicator of efficacy. Tumor growth inhibition rate (%)=(1−the average tumor weight of the treatment group/the average tumor weight of the model group)×100%.

[2] = tested on: transplanted tumor of human breast cancer cell MCF-7; experiment: MCF-7 transplanted tumor in nude mice; conditions: MCF-7; 30 mg/kg i.g. 30 days
Protocol: as §1, with “group: a model group, a cyclophosphamide group,” for “group:”
as §2, §3

[3] = tested on: transplanted tumor of human pancreatic cancer cell PANC-1; experiment: PANC-1 transplanted tumor in nude mice
Protocol: as §1, with “group: a model group, a cyclophosphamide group,” for “group:”
as §2, §3

[4] = tested on: transplanted tumor of mouse Lewis lung cancer; experiment: Transplanted tumor of mouse Lewis lung cancer
Protocol: Lewis lung cancer cells were cultured in a RPMI 1640 culture medium containing 10% fetal bovine serum at 37° C. in a 5% CO2 incubator. The cells in the logarithmic growth phase were subjected to trypsinization with 0.25% trypsin, then the cells were collected to be centrifugated to remove the obtained supernatant, then were washed twice with sterile normal saline. […] The Lewis cells were adjusted to 1×10^7/mL in concentration and stored in ice water. 75% ethanol was used to disinfect the skin under the right armpits of the mice, and each C57BL/6 mouse was soon inoculated subcutaneously with 0.2 ml of the cells at its right armpit.
In the Lewis lung cancer model, the mice inoculated with the tumor were randomly divided into groups with 10 mice in each group the next day of inoculation. The groups included: a model control group, a positive drug cyclophosphamide control group (CTX, 30 mg/kg), isovaleryl spiramycin I groups with doses of 13, 26 and 52 mg/kg; isovaleryl spiramycin II groups with doses of 13, 26 and 52 mg/kg; isovaleryl spiramycin III groups with doses of 13, 26 and 52 mg/kg. Each group was continuously administered intragastrically for 15 days with a dose of 20 ml/kg.
The tumor-bearing mice were weighed and sacrificed the next day after the last administration. The subcutaneous tumors were dissected and weighed. The average tumor weight of each group is calculated, and the tumor inhibition rate is calculated.
Tumor inhibition rate=(1−T/C)×100%
T: average tumor weight of the drug-administered group; C: average tumor weight of the blank control group.

[5] = dose 30 mg/kg, title prints KM mouse H22 cells

SMILES: O=P1(N(CCCl)CCCl)NCCCO1 (stereo not drawn) [Cyclophosphamide, cyclophosphamide, reference compound]
- Body Weight (d 1) [1]: 21.83 ± 0.33 g
- Body Weight (d 30) [1]: 23.72 ± 2.41 g
- Inhibition Rate (tumor growth inhibition rate) [1]: 78.00%
- Relative Tumor Proliferation Rate (T/C) [1]: 22.72%
- Relative Tumor Volume (RTV) [1]: 2.91 ± 0.95
- Tumor Volume (d 1) [1]: 135.46 ± 16.48 mm3
- Tumor Volume (d 30) [1]: 384.21 ± 106.99 mm3
- Tumor Weight [1]: 0.38 ± 0.08 g
- Body Weight (d 1) [2]: 22.03 ± 0.70 g
- Body Weight (d 30) [2]: 17.77 ± 0.65 g
- Inhibition Rate (tumor growth inhibition rate) [2]: 70.18%
- Relative Tumor Proliferation Rate (T/C) [2]: 29.56%
- Relative Tumor Volume (RTV) [2]: 5.17 ± 0.64
- Tumor Volume (d 1) [2]: 103.78 ± 12.65 mm3
- Tumor Volume (d 30) [2]: 532.62 ± 56.27 mm3
- Tumor Weight [2]: 0.81 ± 0.25*8 g
- Body Weight (d 1) ([3]; PANC-1, 30 mg/kg i.g. 30 days): 22.03 ± 0.70 g
- Body Weight (d 30) ([3]; PANC-1, 30 mg/kg i.g. 30 days): 17.77 ± 0.65 g
- Inhibition Rate (tumor growth inhibition rate) ([3]; PANC-1, 30 mg/kg i.g. 30 days): 70.18%
- Tumor Weight ([3]; PANC-1, 30 mg/kg i.g. 30 days): 0.81 ± 0.25*8 g
- Relative Tumor Proliferation Rate (T/C) ([3]; PANC-1 nude mice, 30 mg/kg): 29.56%
- Relative Tumor Volume (RTV) ([3]; PANC-1 nude mice, 30 mg/kg): 5.17 ± 0.64
- Tumor Volume (mm3) (d 1) ([3]; PANC-1 nude mice, 30 mg/kg, d1): 103.78 ± 12.65 mm3
- Tumor Volume (mm3) (d30) ([3]; PANC-1 nude mice, 30 mg/kg, d30): 532.62 ± 56.27 mm3
- Inhibition Rate (%) ([4]; dose 30 mg/kg): 76.43%
- Tumor Weight ([4]; dose 30 mg/kg): 0.38 ± 0.07 g
- Body Weight (g) (d1) ([4]; dose 30 mg/kg, d 1): 19.62 ± 1.01 g
- Tumor Volume (mm3) (d 1) ([4]; dose 30 mg/kg, d 1, title prints KM mouse H22 cells): 104.35 ± 30.89 mm3
- Body Weight (g) (d 15) ([4]; dose 30 mg/kg, d 15): 21.38 ± 0.67 g
- Tumor Volume (mm3) (d30) ([4]; dose 30 mg/kg, d 30, title prints KM mouse H22 cells): 371.39 ± 112.68 mm3
- Relative Tumor Proliferation Rate (T/C) [4, 5]: 24.55
- Relative Tumor Volume (RTV) [4, 5]: 3.93 ± 1.86
- tumor inhibition rate ([4]; mouse Lewis lung cancer, CTX 30 mg/kg i.g. 15 days): 76.43%

Reference: patent publication US20200163984A1, “USE OF ISOVALERYL SPIRAMYCIN I, II AND/OR III IN MANUFACTURING MEDICAMENT FOR TREATING AND/OR PREVENTING TUMOR, AND MEDICAMENT” (SHENYANG FUYANG PHARMACEUTICAL TECHNOLOGY CO., LTD., priority 2017, published 2020)
